Measurements reported in article PMC7699524, “Assessing the Intestinal Permeability and Anti-Inflammatory Potential of Sesquiterpene Lactones from Chicory” (Nutrients, 2020).

Assays:
[1] = tested on: Crz1 target genes PMR1 and GSC2; assay: qRT-PCR of Crz1 target genes; assay type: cell-based, S. cerevisiae; details: 3.6 µM, 3 mM MnCl2, qPCR
Procedure: The qRT-PCR analyses were performed as previously described. Briefly, total RNA was extracted using the RNeasy Mini kit (QIAGEN). After cleaning, 4 μg of total RNA was used for reverse-transcription with SuperScript™ II Reverse Transcriptase (Invitrogen). The qRT-PCR was performed in a QuantStudio™ 5 (Applied Biosystems), using SensiFAST™ SYBR Lo-ROX Kit (Bioline) to evaluate expression of the PMR1 (‘5-[…]-3′; 5′-[…]-3′) (GeneID: 852709), and GSC2 (5′-[…]-3′; 5′-[…]-3′) (GeneID: 852920) genes. Both ACT1 (5′-GATCATTGCTCCTCCAGAA-3′; 5′-[…]-3′) and PDA1 (5′-[…]-3′; 5′-[…]-3′) were used as reference genes. The results were expressed as relative mRNA expression levels relative to activation condition (mRNA levels a.u.) of at least three independent biological replicates ± SEM.

calcineurin-Crz1 pathway = assay: β-Galactosidase CDRE-lacZ yeast reporter assay of Crz1 activation; assay type: cell-based, S. cerevisiae; details: Saccharomyces cerevisiae
Procedure: Cultures at OD600= 0.5 ± 0.05 were diluted to OD600= 0.1 ± 0.01, transferred to 96-well microplate and challenged with the highest nontoxic concentration previously determined for each compound to investigate their putative inhibitory effect towards the calcineurin-responsive zinc finger (Crz1) activation. Measurements of β-galactosidase activity driven by the calcineurin-dependent response element (CDRE) regulated lacZ reporter gene allowed the quantitative assessment of the capacity of each compound to inhibit the activation of Crz1. FK506 (Cayman Chemicals, Ann Arbor, MI, USA) was used as a positive control at a final concentration of 12.5 μM. After 90 min of incubation with the respective compounds at 30 °C under orbital shaking, MnCl2 (Merck, Saint Louis, MO, USA) was added at a final concentration of 3 mM. After 90 min of incubation under the same conditions, OD600 of cultures were recorded, 10 μL of cell suspensions were transferred to a new 96-well plate followed by addition of 20 μL Y-PER cell lysis reagent (ThermoFisher Scientific), and the plates were incubated for 20 min at 37 °C without agitation. 240 μL of LacZ buffer (8.5 g/L Na2HPO4 (ROTH), 5.5 g/L NaH2PO4.H2O (Merck), 0.75 g/L KCl (Panreac), 0.246 g/L MgSO4.7H2O (Merck) containing […] o-nitrophenyl β-D-galactopyranoside (ONPG) (Sigma–Aldrich®—Poole, Dorset, UK) was added to each well, and plates were incubated at 30 °C for 2 h. The OD420 and OD550 were monitored using a Biotek Power Wave XS Microplate Spectrophotometer (Biotek® Instruments, Winooski, VT, USA). The results were expressed as Miller units (MU), applying the following equation, where V = volume of culture assayed in mL; t = reaction time in minutes: Miller unit = 1000 × (OD420 − 1.75 × OD550)/(t × V × OD600)(1)

Crz1-GFP = assay: Fluorescence microscopy of Crz1-GFP nuclear accumulation; assay type: cell-based, S. cerevisiae; details: 3.6 µM, then 3 mM MnCl2; YAA3 cells; MnCl2 only 55.6%
Procedure: YAA3 cells were treated with 3.6 µM of 11β,13-dihydrolactucin or 12.5 µM of FK506 for 90 min, followed by incubation with or without 3 mM MnCl2 for further 90 min. On the last 10 min of incubation, 10 µg/mL of Hoechst 33,342 (Sigma) nuclear dye were added. Cells were washed and resuspended in 5 µL of 1,4-Diazabicyclo[2.2.2]octane (DABCO, triethylenediamine) DABCO solution (200 mM DABCO in 75% (v/v) glycerol, 25% (v/v) PBS) (Sigma-Aldrich). The preparations were monitored for GFP fluorescence as previously described using a Zeiss Imager Z2 (Zeiss, Germany) fluorescence microscope. Photographs were taken with an Axiocam 506 mono (Zeiss). Three images were taken and analyzed for each sample, each one containing ≈ 600 individual cells. Images were analyzed using Fiji-ImageJ 1.53f (NIH, Bethesda, MD, USA).

Caco-2 cells = assay: Permeability across Caco-2 monolayer (apical concentration by LC-MS); details: Caco-2 monolayer
Procedure: For intestinal permeability assessments of pure SLs, Caco-2 cells were seeded in 12 mm Transwell® inserts (polyester membrane, 0.4 μm pore size, Corning Costar Corp., NY, USA) at a density of 1.0 × 10^5 cell/cm^2. Cells were allowed to grow and differentiate to a confluent monolayer for 21 days postseeding with medium change three times per week. This mimics the apical and basolateral sides of the intestinal mucosa. Before the permeability assay, cells were washed with Hank’s balanced salt solution (HBSS) (Gibco, Life Technologies, Paisley, UK), and pure SLs in HBSS were added to the apical side for 4 h at the noncytotoxic concentration of 10 μM, while the basolateral well was replaced by HBSS. The fluorescent marker fluorescein (2.7 µM) was used as control, having been submitted to the same protocol as the SLs. Cells were submitted to an orbital shaking of 125 rpm (Ohaus, Shanghai, China), and samples from the basolateral side were collected after 15 min, 30 min, and then every hour until the end of the assay, and each time the retrieved volume was replaced by fresh HBSS to maintain sink conditions. After the 4 h assay, both apical and basolateral contents were collected, the cells were washed with PBS followed by culture medium, and culture medium was added to both compartments for 24 h to assess monolayer recovery. All samples were stored at −80 °C until LC-MS analysis.
Transepithelial electrical resistance (TEER) of all monolayers was monitored before and during experiments, and 24 h after the assay, to ensure their integrity using an EVOM™ voltmeter (WPI, Berlin, Germany). Before each experiment, TEER was measured and only monolayers with a TEER value higher than 500 Ω cm^2 were used. Experiments were done in triplicate.
Ultra High Performance Liquid Chromatography (UHPLC) separations were performed with a Dionex U3000 UHPLC coupled with a U3000 Photo Diode Array (PDA) and an LTQ-Orbitrap XL Mass Spectrometry (MS) system (Thermo-Fisher Ltd., Hemel Hempstead, UK). The MS and PDA systems were tuned and calibrated according to the manufacturers recommended procedures. The UHPLC was operated under Xcalibur and Chromeleon software (Thermo-Fisher Ltd. UK). A flow rate of 300 µL/min was applied, the column and guard (Synergi C18 Hydro-RP 80 Ä, 150 × 2.0 mm, 4 µm particle size; Phenomenex Ltd. U.K.) were maintained at a temperature of 30 °C. The solvent system compositions were, A: HPLC grade water (J.T. Baker, Scientific Chemical Supplies Ltd. UK), and solvent B: HPLC grade acetonitrile (J.T. Baker, Scientific Chemical Supplies Ltd. UK), both acidified with 0.1% MS grade formic acid (Ultima, Fisher Scientific, UK). A sample injection volume of 10 µL was employed in partial-loop mode. The gradient program was as follows: hold 2% B 0–2 min, 2–5% B 2–5 min, 5–45% B 5–25 min, 45–100% B 25–35 min, hold 100% B 35–38 min, 100–2% B 38–39 min, hold 2% B 39–44 min. Autosampler syringe and line washes were performed with 2:8 HPLC grade water: acetonitrile (J.T. Baker, Scientific Chemical Supplies Ltd., UK). The HPLC column eluent was first monitored by the U3000 PDA detector where spectra were collected in wavelength/absorbance mode from 200–600 nm. Additionally, three channel set points were employed, Channel A 210 nm, Channel B 260 nm, Channel C 320 nm. Spectra were collected with a filter bandwidth of 8 nm and wavelength step of 1 nm, the scan rate was 5 Hz.
The UHPLC eluent was next transferred to a Thermo LTQ-Orbitrap XL mass spectrometry system operated under Xcalibur (Thermo-Fisher Ltd. UK). For the first two minutes of analysis the UHPLC eluent was diverted to waste, from two to 39 min the eluent was directed to the MS detector, before being diverted back to waste between 39–44 min. Mass spectra were collected in centroid mode with a primary full scan event (m/z 100–1000) at a mass resolution of 30,000 (FWHM defined at m/z 400) within the Fourier Transform (FT) detector.

CC1=C2C(=O)C=C(CO)C2C2OC(=O)C(C)C2C(O)C1 (stereo not drawn) [11β,13-dihydrolactucin]
GSC2 mRNA expression [1]: downregulated
PMR1 mRNA expression [1]: downregulated
inhibition at 12.5 µM (calcineurin-Crz1 pathway; read-out: Calcineurin-Crz1 Inhibition (%) ± SD, 12.5 µM, MnCl2 3 mM activation, strain YAA5): 43 ± 8%
IC50 (calcineurin-Crz1 pathway; read-out: IC50 for Crz1 inhibition): 2350 ± 1450 nM
inhibition at 3.6 µM (calcineurin-Crz1 pathway; read-out: Inhibition of Crz1 activation (dose response assay), 3.6 µM, MnCl2 activation): ≤ 54%
Percentage of cells with nuclear Crz1-GFP (Crz1-GFP): 21%
% of Decrease in SL Concentration in the Apical Side (t = 4h) (Caco-2 cells; 10 µM apical, 4 h vs t = 0 h): 8.7%
SL conjugates with cysteine in the apical side after 4 h (Caco-2 cells; LC-MS): not detected
Concentration of SL (Apical Side) t = 4 h (Caco-2 cells; SL added at 10 µM apical, after 4 h): 8.3 ± 1.4 µM
Concentration of SL (Apical Side) t = 0 h (Caco-2 cells; SL added at 10 µM apical, before experiment): 9.1 ± 1.3 µM
